# Source: US20230183323A1 (BROWN UNIVERSITY, priority 2020, published 2023)
# Counter-ions that a name gives are not always drawn.
# Legend:
# [1] = tested on: ACE2, TMPRSS2, CTSL, and FURIN mRNA in Calu-3 lung epithelial cells; test: RT-PCR of basal and CHI3L1 regulated expression in Calu-3 cells transfected with CHI3L1 cDNA, with flavopiridol; assay type: cell-based, human; details: 24 hours
# Experimental: After transfection of the cells with empty vector (pcDNA) or full length CHI3L1 cDNA, the Calu-3 cells were incubated with flavopiridol (25 nM) or its vehicle control for 24 hours. Levels of mRNA encoding ACE2 (top left), TMPRSS2 (top right), CTSL (bottom left), and FURIN (bottom right) were assessed via RT-PCR. *p<0.05; **p<0.01 (Student's t-test).
# (§1) Total cellular RNA was obtained using TRIzol reagent (ThermoFisher Scientific) followed by RNA extraction using RNeasy Mini Kit (Qiagen, Germantown, Md.) according to the manufacturer's instructions. mRNA was measured and used for real time (RT)-PCR as described previously.^55,56 The primer sequences used in these studies are summarized in Table 1. Ct values of the test genes were normalized to the internal housekeeping gene β-actin.
# The next study assessed whether the inhibition of CHI3L1 phosphorylation wound result in similar effects observed with CHI3L1 inhibitors on the levels of mRNA encoding ACE2 and spike activating proteases (SAPs), namely FURIN, TMPRSS2, and CTSL, in Calu-3 cells (described in Example 1).
# [2] = tested on: serine phosphorylation of CHI3L1 in U87 cells; test: Co-IP/Immunoblot of CHI3L1 phosphorylation in U87 cells; assay type: cell-based; details: flavopiridol 50 nM unless otherwise indicated, time-dependent and dose-dependent
# Experimental: U87 cells that endogenously express all components of chitosome were subjected to Co-IP/Immunoblot assays after Pan-CDK inhibitor flavopiridol treatment. Flavopiridol was used at 50 nM unless otherwise indicated. Hr, hours.
# [3] = molecular target: CDK1 (Homo sapiens, UniProt P06493); details: cited from earlier work
# [4] = molecular target: CDK2 (Homo sapiens, UniProt P24941); details: cited from earlier work
# [5] = molecular target: CDK4 (Homo sapiens, UniProt P11802); details: cited from earlier work
# [6] = molecular target: CDK6 (Homo sapiens, UniProt Q00534); set-up: key to the marks not given beside the values; details: cited from earlier work
# [7] = molecular target: CDK7 (Homo sapiens, UniProt P50613); set-up: key: + is used to indicate the potency of the inhibitor; ++++ > +++ > ++ > +; + is used to indicate the potency of the inhibitor; ++++ > +++ > ++ > +; + is used to indicate the potency of the inhibitor; ++++ > +++ > ++ > +; + is used to indicate the potency of the inhibitor; ++++ > +++ > ++ > +; ◯ refers to compounds with inhibitory effects on the related isoform, but without specific value; details: cited from earlier work
# [8] = tested on: ACE2, TMPRSS2, and CTSL mRNA in A549 cells; test: qRT-PCR of mRNA levels in A549 cells incubated with rhCHI3L1; assay type: cell-based, human; details: 24 hr
# Experimental: as §1
# In the first study, A549 cells were incubated with rhCHI3L1 from a commercial source (R&D Inc.) and rhCHI3L1 generated at Brown University (Brown). The cells were incubated for 24 hr with stimulation of rhCHI3L1 (500 ng/mL) at 37° C. mRNA was then extracted and the levels of mRNA for ACE2 and CTSL were evaluated by real time qRT-PCR and compared to vehicle controls. Levels were expressed in relationship to GAPDH controls.
# In the next study, A549 cells were incubated with 0, 250 ng/mL, or 500 ng/mL of rhCHI3L1 for 24 hr with stimulation of rhCHI3L1 at 37° C. mRNA was then extracted and the levels of mRNA encoding ACE2, TMPRSS2, and CTSL were assessed via qRT-PCR.
# [9] = tested on: ACE2, TMPRSS2, and CTSL mRNA in normal human small airway epithelial cells (HSAEC); test: qRT-PCR of mRNA levels in HSAEC incubated with rhCHI3L1; assay type: cell-based; details: rhCHI3L1 500 ng/mL, 24 hours
# Experimental: as §1
# In the present study, normal HSAEC were incubated with 0, 100 ng/mL, or 500 ng/mL of rhCHI3L1 for 24 hours at 37° C. The levels of mRNA encoding ACE2, TMPRSS2, and CTSL were assessed via qRT-PCR and expressed in relationship to GAPDH controls.
# [10] = tested on: ACE2, FURIN, TMPRSS2, and CTSL mRNA in Calu-3 lung epithelial cells; test: RT-PCR of basal and rhCHI3L1 regulated expression in Calu-3 cells with FRG or KSM; assay type: cell-based, human
# Experimental: Calu-3 cells were incubated with vehicle or rhCHI3L1 for 24 hours in the presence of KSM (250 ng/mL) or its vehicle control (PBS). Levels of mRNA encoding ACE2 (top left), FURIN (top right), TMPRSS2 (bottom left), and CTSL (bottom right) were assessed via RT-PCR. KSM diminished the levels of basal ACE2 expression and potently ameliorated the ability of rhCHI3L1 to stimulate ACE2 mRNA accumulation.
# as §1
# Calu-3 cells were incubated with vehicle or 250 ng/mL rhCHI3L1 for 24 hours in the presence of 250 ng/mL FRG or its isotype control (isotype) at 37° C. Levels of mRNA encoding ACE2, FURIN, TMPRSS2, and CTSL were assessed via RT-PCR.
# Kasugamycin (KSM) is an inhibitor of CHI3L1 and chitinase 1. The present study assessed the effects of KSM on the levels of mRNA encoding ACE2, FURIN, TMPRSS2, and CTSL in Calu-3 cells.
# [11] = tested on: spike protein (S)-containing pseudovirus (D614 and G614 variants); assay type: cell-based; details: Calu-3 cells
# [12] = molecular target: CDK5 (Homo sapiens, UniProt Q00535); details: cited from earlier work
# [13] = molecular target: CDK9 (Homo sapiens, UniProt P50750); set-up: key: + is used to indicate the potency of the inhibitor; ++++ > +++ > ++ > +; + is used to indicate the potency of the inhibitor; ++++ > +++ > ++ > +; + is used to indicate the potency of the inhibitor; ++++ > +++ > ++ > +; + is used to indicate the potency of the inhibitor; ++++ > +++ > ++ > +; ◯ refers to compounds with inhibitory effects on the related isoform, but without specific value; details: cited from earlier work
# [14] = molecular target: CDK3 (Homo sapiens, UniProt Q00526); details: cited from earlier work
# [15] = tested on: CLK; set-up: key: + is used to indicate the potency of the inhibitor; ++++ > +++ > ++ > +; + is used to indicate the potency of the inhibitor; ++++ > +++ > ++ > +; + is used to indicate the potency of the inhibitor; ++++ > +++ > ++ > +; + is used to indicate the potency of the inhibitor; ++++ > +++ > ++ > +; ◯ refers to compounds with inhibitory effects on the related isoform, but without specific value; details: cited from earlier work
# [16] = molecular target: CDK8 (Homo sapiens, UniProt P49336); set-up: key: + is used to indicate the potency of the inhibitor; ++++ > +++ > ++ > +; + is used to indicate the potency of the inhibitor; ++++ > +++ > ++ > +; + is used to indicate the potency of the inhibitor; ++++ > +++ > ++ > +; + is used to indicate the potency of the inhibitor; ++++ > +++ > ++ > +; ◯ refers to compounds with inhibitory effects on the related isoform, but without specific value; details: cited from earlier work
# [17] = Calu-3 cells, pcDNA or CHI3L1 cDNA, flavopiridol 25 nM
# [18] = Calu-3 cells, rhCHI3L1 250 ng/mL, 24 hours
# [19] = Calu-3 cells, 250 ng/mL rhCHI3L1, 250 ng/mL FRG vs isotype control, 24 hours
# CDK4, sequence (P11802 whole entry, species assumed): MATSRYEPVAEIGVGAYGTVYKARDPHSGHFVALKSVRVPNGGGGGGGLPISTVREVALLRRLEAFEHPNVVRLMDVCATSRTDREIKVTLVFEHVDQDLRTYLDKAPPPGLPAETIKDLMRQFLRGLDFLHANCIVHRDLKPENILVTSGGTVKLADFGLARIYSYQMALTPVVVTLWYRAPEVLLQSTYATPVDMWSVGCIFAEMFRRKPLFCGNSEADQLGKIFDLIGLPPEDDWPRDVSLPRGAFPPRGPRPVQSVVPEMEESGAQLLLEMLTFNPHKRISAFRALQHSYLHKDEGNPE
# CDK4, sequence (P24385 whole entry partner, species assumed): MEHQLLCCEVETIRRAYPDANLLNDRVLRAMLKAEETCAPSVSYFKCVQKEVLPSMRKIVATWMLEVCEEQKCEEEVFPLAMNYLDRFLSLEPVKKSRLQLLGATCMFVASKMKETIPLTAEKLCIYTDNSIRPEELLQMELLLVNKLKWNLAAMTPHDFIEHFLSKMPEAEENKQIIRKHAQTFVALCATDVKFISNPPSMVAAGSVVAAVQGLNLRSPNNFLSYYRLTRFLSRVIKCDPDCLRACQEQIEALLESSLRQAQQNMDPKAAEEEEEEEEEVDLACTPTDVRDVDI
# CDK7, sequence (P51946 whole entry, canonical isoform): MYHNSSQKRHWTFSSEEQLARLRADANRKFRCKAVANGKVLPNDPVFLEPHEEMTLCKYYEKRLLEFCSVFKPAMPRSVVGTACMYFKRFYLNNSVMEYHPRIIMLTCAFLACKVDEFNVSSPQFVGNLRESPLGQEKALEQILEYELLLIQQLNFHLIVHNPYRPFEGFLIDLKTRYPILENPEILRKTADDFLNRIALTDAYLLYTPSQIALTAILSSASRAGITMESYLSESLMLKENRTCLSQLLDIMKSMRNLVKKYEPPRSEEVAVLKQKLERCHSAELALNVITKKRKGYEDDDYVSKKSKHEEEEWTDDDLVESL
# CDK7, sequence (P50613 whole entry, canonical isoform): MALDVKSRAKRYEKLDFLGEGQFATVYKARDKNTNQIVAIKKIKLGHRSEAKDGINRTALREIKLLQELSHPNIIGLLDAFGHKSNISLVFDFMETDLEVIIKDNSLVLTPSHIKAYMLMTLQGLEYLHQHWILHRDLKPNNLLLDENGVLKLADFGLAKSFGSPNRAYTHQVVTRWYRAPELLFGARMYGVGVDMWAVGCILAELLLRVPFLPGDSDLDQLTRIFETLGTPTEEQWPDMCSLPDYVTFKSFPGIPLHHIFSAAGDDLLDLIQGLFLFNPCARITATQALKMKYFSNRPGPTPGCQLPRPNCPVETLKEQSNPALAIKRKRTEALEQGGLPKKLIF
# CDK7, sequence (P51948 whole entry, further chain, canonical isoform): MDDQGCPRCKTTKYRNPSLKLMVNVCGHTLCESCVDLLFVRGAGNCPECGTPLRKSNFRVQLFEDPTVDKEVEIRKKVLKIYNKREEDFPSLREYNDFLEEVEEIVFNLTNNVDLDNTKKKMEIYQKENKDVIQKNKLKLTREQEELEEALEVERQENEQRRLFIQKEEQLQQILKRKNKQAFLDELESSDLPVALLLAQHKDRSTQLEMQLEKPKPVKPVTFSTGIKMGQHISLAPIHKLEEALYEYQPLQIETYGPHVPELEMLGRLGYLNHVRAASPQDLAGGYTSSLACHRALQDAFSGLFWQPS
# CDK1, sequence (P06493 whole entry, species assumed): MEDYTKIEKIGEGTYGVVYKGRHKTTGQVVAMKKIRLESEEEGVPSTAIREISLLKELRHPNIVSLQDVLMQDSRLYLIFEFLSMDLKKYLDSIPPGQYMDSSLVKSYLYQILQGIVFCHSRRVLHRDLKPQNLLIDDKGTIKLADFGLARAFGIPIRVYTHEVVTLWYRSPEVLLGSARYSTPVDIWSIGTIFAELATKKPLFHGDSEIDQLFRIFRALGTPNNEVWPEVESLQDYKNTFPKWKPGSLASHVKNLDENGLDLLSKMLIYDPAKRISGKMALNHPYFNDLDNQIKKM
# CDK1, sequence (P14635 whole entry partner, species assumed): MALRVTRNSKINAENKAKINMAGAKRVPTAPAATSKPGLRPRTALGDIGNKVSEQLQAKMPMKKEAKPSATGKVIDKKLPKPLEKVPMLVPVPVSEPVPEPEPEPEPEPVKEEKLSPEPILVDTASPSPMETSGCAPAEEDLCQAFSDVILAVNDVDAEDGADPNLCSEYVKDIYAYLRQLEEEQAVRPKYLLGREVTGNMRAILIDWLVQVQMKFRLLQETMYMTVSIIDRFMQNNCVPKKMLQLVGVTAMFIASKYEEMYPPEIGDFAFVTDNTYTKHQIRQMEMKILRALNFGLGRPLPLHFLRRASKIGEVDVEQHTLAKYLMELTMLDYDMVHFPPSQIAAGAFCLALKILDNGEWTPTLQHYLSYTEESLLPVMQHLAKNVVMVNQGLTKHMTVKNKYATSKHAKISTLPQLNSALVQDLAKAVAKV
# CDK9, sequence (O60563 whole entry, canonical isoform): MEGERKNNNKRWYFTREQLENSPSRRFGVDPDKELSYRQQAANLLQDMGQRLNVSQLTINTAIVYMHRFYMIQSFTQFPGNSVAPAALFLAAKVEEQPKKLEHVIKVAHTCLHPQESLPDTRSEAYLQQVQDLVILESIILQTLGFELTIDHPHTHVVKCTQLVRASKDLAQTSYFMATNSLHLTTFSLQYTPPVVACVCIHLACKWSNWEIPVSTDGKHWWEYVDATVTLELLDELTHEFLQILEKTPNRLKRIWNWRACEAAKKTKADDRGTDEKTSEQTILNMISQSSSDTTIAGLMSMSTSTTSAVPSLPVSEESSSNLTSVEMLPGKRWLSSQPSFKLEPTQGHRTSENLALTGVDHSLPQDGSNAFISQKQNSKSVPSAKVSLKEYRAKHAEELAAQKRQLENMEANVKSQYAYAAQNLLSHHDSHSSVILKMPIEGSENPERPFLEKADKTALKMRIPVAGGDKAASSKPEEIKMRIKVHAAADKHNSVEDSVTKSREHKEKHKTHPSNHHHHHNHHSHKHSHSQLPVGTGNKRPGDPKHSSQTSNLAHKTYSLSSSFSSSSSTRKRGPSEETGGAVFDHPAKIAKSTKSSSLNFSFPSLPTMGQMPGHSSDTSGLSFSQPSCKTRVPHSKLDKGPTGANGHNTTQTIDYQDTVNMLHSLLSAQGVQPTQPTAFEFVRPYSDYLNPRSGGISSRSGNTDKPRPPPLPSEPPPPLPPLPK
# CDK9, sequence (P50750 whole entry, canonical isoform): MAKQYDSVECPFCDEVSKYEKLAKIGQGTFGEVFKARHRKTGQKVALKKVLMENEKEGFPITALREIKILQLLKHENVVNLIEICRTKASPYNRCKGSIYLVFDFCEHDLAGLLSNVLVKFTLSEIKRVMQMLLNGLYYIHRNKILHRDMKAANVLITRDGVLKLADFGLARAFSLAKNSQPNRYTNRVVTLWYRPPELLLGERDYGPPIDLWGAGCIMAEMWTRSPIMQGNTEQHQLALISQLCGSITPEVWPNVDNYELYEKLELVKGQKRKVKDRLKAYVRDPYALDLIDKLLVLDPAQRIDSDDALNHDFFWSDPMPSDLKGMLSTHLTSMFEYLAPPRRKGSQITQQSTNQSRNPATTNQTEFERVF
# CDK6, sequence (Q00534 whole entry, canonical isoform): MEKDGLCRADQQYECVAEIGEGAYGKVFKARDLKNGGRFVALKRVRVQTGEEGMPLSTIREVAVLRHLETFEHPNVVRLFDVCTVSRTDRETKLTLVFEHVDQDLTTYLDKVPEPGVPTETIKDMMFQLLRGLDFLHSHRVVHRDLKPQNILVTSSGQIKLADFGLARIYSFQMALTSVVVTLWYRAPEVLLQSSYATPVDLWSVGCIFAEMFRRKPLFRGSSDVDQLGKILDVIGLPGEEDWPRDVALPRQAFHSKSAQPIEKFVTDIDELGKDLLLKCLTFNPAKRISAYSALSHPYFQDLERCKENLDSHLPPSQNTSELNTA
# CDK5, sequence (Q00535 whole entry, canonical isoform): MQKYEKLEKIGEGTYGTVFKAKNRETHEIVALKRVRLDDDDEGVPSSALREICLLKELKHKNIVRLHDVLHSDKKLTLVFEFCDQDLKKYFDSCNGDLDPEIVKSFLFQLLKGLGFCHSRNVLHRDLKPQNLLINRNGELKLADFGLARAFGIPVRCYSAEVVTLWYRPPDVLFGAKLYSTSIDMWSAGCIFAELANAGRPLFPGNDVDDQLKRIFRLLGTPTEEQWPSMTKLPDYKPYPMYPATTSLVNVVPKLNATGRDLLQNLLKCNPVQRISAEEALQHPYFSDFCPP
# CDK5, sequence (Q15078 whole entry, further chain, canonical isoform): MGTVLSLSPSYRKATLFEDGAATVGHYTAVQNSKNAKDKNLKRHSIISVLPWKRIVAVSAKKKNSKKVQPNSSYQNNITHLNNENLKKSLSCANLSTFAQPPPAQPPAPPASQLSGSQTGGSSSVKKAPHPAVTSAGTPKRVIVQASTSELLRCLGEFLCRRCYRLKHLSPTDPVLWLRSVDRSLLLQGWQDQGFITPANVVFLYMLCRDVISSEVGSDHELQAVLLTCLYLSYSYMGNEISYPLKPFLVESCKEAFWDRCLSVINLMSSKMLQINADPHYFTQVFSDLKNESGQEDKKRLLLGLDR
molecule,measurement,setting,value
CN1CC[C@H](c2c(O)cc(O)c3c(=O)cc(-c4ccccc4Cl)oc23)[C@H](O)C1 [Flavopiridol],ability of CHI3L1 to stimulate ACE2 mRNA accumulation,"[1]; Calu-3 cells transfected with full length CHI3L1 cDNA, flavopiridol 25 nM",potently inhibited
same,levels of basal ACE2 expression,"[1]; Calu-3 cells, empty vector (pcDNA), flavopiridol 25 nM vs vehicle",diminished
same,basal and CHI3L1-stimulated expression of CTSL,[1]; [17],potently decreased
same,basal and CHI3L1-stimulated expression of FURIN,[1]; [17],potently decreased
same,basal and CHI3L1-stimulated expression of TMPRSS2,[1]; [17],potently decreased
same,serine phosphorylation of CHI3L1,[2],blocked
same,Inhibitory potency CDK1,[3],+++
same,Inhibitory potency CDK2,[4],+++
same,Inhibitory potency CDK4,[5],+++
same,Inhibitory potency CDK6,[6],++
same,Inhibitory potency CDK7,[7],+
rhCHI3L1: recombinant human CHI3L1 from a commercial source (R&D Inc.) or generated at Brown University,levels of mRNA encoding ACE2,"[8]; rhCHI3L1 0, 250 or 500 ng/mL",significantly upregulated
same,levels of mRNA encoding CTSL,"[8]; rhCHI3L1 0, 250 or 500 ng/mL",significantly upregulated
same,levels of mRNA encoding TMPRSS2,"[8]; rhCHI3L1 0, 250 or 500 ng/mL",significantly upregulated
same,levels of mRNA encoding ACE2,"[8]; rhCHI3L1 500 ng/mL, vs vehicle",significantly upregulated
same,levels of mRNA encoding cathepsin L (CTSL),"[8]; rhCHI3L1 500 ng/mL, vs vehicle",significantly upregulated
same,levels of mRNA encoding ACE2,[9],significantly upregulated
same,levels of mRNA encoding CTSL,[9],significantly upregulated
same,levels of mRNA encoding TMPRSS2,[9],significantly upregulated
same,levels of mRNA encoding ACE2,[10]; [18],significantly upregulated
same,levels of mRNA encoding CTSL,[10]; [18],significantly upregulated
same,levels of mRNA encoding FURIN,[10]; [18],significantly upregulated
same,levels of mRNA encoding TMPRSS2,[10]; [18],significantly upregulated
same,cellular integration of S proteins (GFP expression),[11]; rCHI3L1 24 hours before pseudovirus,stimulated
Nc1nc(Nc2ccc(S(N)(=O)=O)cc2)nn1C(=O)c1c(F)cccc1F [JNJ-7706621],Inhibitory potency CDK1,[3],++++
same,Inhibitory potency CDK2,[4],++++
same,Inhibitory potency CDK4,[5],+
same,Inhibitory potency CDK6,[6],++
O=C(NC1CCNCC1)c1[nH]ncc1NC(=O)c1c(Cl)cccc1Cl [AT7519 HCl],Inhibitory potency CDK1,[3],++
same,Inhibitory potency CDK4,[5],++
same,Inhibitory potency CDK5,[12],+++
same,Inhibitory potency CDK6,[6],++
same,Inhibitory potency CDK7,[7],+
same,Inhibitory potency CDK9,[13],++++
"CN1CC[C@H](c2c(O)cc(O)c3c(=O)cc(-c4ccccc4Cl)oc23)[C@H](O)C1 [Flavopiridol HCl, Flavopiridol Hydrochloride]",Inhibitory potency CDK1,[3],+++
same,Inhibitory potency CDK2,[4],+++
same,Inhibitory potency CDK3,[14],+
same,Inhibitory potency CDK4,[5],+++
same,Inhibitory potency CDK6,[6],+++
same,Inhibitory potency CDK7,[7],+
CCN1/C(=C/C(C)=O)Sc2ccc(OC)cc21 [TG003],Inhibitory potency CLK,[15],+++
CC(C)c1c2cc(-c3ccnc(NC4CCC(NC5CCOCC5)CC4)n3)ccc2nn1C (stereo not shown) [LY2857785],Inhibitory potency CDK7,[7],+
same,Inhibitory potency CDK8,[16],+++
same,Inhibitory potency CDK9,[13],+++
Cc1ccc(CNc2ncnc3ccc(-c4ccc(CO)o4)cc23)o1 [ML167],Inhibitory potency CLK,[15],++
NVP-LCQ195,Inhibitory potency CDK1,[3],++++
same,Inhibitory potency CDK2,[4],+++
same,Inhibitory potency CDK5,[12],++++
same,Inhibitory potency CDK7,[7],◯
same,Inhibitory potency CDK9,[13],◯
same,Inhibitory potency CLK,[15],◯
"FRG: anti-CHI3L1 monoclonal antibody; heavy chain SEQ ID NO: 13, light chain SEQ ID NO: 14 (antibody, V domains shown) VH: QIQLVQSGPELKKPGETVKISCKASGYTFTNYGMNWVKQAPGKGLKWMGWINTYTGEPTYADDFKGRFAFSLETSASTAYLQINNLRNEDMSTYFCARLGYGKFYVMDYWGQGTSVTVSS VL: DVVMTQTPLSLPVSLGDQASISCRSSQSLVHSNGNTYLHWYLQKPGQSPKLLIYKVSNRFSGVPDRFSGSGSGTDFTLKISRVEAEDLGVYFCSQSTHVTWTFGGGTKLEIK",levels of basal ACE2 expression,"[10]; Calu-3 cells, 250 ng/mL FRG vs isotype control, 24 hours",modestly diminished
same,ability of rhCHI3L1 to stimulate ACE2 mRNA accumulation,[10]; [19],potently inhibited
same,basal and rhCHI3L1-stimulated expression of CTSL,[10]; [19],potently decreased
same,basal and rhCHI3L1-stimulated expression of FURIN,[10]; [19],potently decreased
same,basal and rhCHI3L1-stimulated expression of TMPRSS2,[10]; [19],potently decreased
same,CHI3L1 stimulation of ACE2 and the SAPs,[10]; summary of Examples 1 and 2,fully reversed
same,CHI3L1 effect on cellular integration of S proteins (GFP expression by flow cytometry),"[11]; rCHI3L1 250 ng/mL 24 hours, FRG vs control IgG",abrogated
